Results on twelve compounds are retold here after ChEMBL document CHEMBL1201862, “PubChem BioAssay data set” (2004).

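Grown in 96-well plates, cells were treated for 48 hours with each compound at five concentrations. Insufficient inhibition: endpoint recorded as highest concentration tested. GI50 marks 50% less growth.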 Activity calls are given as the source filed them. Cut-off read from the data, not from the text of the source: active = GI50 up to about 1.1 µM and inactive = higher.

Among the test systems are Malme-3M; RXF 393; MOLT-4; OVCAR-4; UACC-257; LOX IMVI; NCI-H23; OVCAR-3; HOP-62; SK-MEL-5; HCT-15; KM12; NCI-H522; COLO 205; CAKI-1; HT-29; HCT-116; CCRF-CEM.
Common to all, as to assay: DTP human tumour cell line panel, 48 h

Turning to `CCCOCN1COCN/C1=N\C#N`, the GI50 (as a rule, the concentration at which growth is held to half of that of the control) is > 100 µM (inactive) with Malme-3M; 15.3 µM (inactive) in the experiment with RXF 393; > 100 µM (inactive) in the experiment with MOLT-4; 32.1 µM (inactive) with OVCAR-4; > 100 µM (inactive) in the experiment with UACC-257; 24.5 µM (inactive) in the experiment with LOX IMVI. Moreover, the GI50 was > 100 µM (inactive) in the experiment with NCI-H23; > 100 µM (inactive) in the experiment with OVCAR-3; > 100 µM (inactive) with HOP-62; > 100 µM (inactive) with SK-MEL-5; 17.1 µM in the experiment on HCT-15; > 100 µM (inactive) with KM12. Moreover, the GI50 in the experiment on NCI-H522 was > 100 µM (inactive); in the experiment with COLO 205 it was 17.9 µM (inactive); with CAKI-1 it was > 100 µM (inactive); in the experiment on HT-29, 48.2 µM (inactive); in the experiment with HCT-116 it was 84.1 µM (inactive).

Take `COc1ccccc1/N=N/c1c(-c2ccccc2)nn(C(=O)CC(=O)Nc2cccc(C)c2)c1-c1ccccc1`: the GI50 with Malme-3M was 45.6 µM (inactive); in the experiment on RXF 393 it was 53.3 µM (inactive); in the experiment on MOLT-4, 10.7 µM (inactive); in the experiment with OVCAR-4, 28.6 µM (inactive); in the experiment with UACC-257, 27.3 µM (inactive); in the experiment on LOX IMVI, 27.5 µM (inactive). Also, the GI50 in the experiment on NCI-H23 was 24.1 µM (inactive); with OVCAR-3, 16 µM (inactive); in the experiment on HOP-62, 19.1 µM (inactive); with SK-MEL-5, 18.7 µM (inactive); with HCT-15, 21.1 µM; in the experiment on KM12 it was 26.1 µM (inactive). Also, the GI50 is 16.4 µM (inactive) with NCI-H522; 71.3 µM (inactive) in the experiment with COLO 205; 15.2 µM (inactive) with CCRF-CEM; 23.3 µM (inactive) in the experiment on CAKI-1; 16.4 µM (inactive) in the experiment with HT-29; 28 µM (inactive) in the experiment on HCT-116.

For the compound `O=C(O)CNc1c2ccccc2nc2ccccc12`, the GI50 was > 100 µM (inactive) in the experiment with Malme-3M; > 100 µM (inactive) in the experiment with RXF 393; > 100 µM (inactive) with MOLT-4; 22.1 µM (inactive) with OVCAR-4; > 100 µM (inactive) with UACC-257; > 100 µM (inactive) in the experiment with LOX IMVI. Further, the GI50 is > 100 µM (inactive) in the experiment with NCI-H23; 80.4 µM (inactive) in the experiment with OVCAR-3; > 100 µM (inactive) with SK-MEL-5; over 100 µM in the experiment on HCT-15; > 100 µM (inactive) in the experiment on KM12; 49.8 µM (inactive) with NCI-H522. Moreover, the GI50 in the experiment on COLO 205 was > 100 µM (inactive); in the experiment with CCRF-CEM, > 100 µM (inactive); with CAKI-1 it was > 100 µM (inactive); in the experiment with HT-29 it was > 100 µM (inactive); in the experiment on HCT-116 it was 78.3 µM (inactive).

For `Cc1cc(=O)n(-c2ccccc2)c(=O)o1`, the GI50 was > 100 µM (inactive) in the experiment on Malme-3M; > 100 µM (inactive) in the experiment on RXF 393; > 100 µM (inactive) in the experiment with MOLT-4; > 100 µM (inactive) in the experiment on OVCAR-4; > 100 µM (inactive) in the experiment with UACC-257; 32.8 µM (inactive) in the experiment with LOX IMVI. The GI50 in the experiment on NCI-H23 is > 100 µM (inactive); with OVCAR-3, > 100 µM (inactive); with HOP-62, > 100 µM (inactive); in the experiment on SK-MEL-5, > 100 µM (inactive); in the experiment on HCT-15, over 100 µM; in the experiment on KM12, > 100 µM (inactive). Moreover, the GI50 in the experiment on NCI-H522 is 62.7 µM (inactive); in the experiment on COLO 205, > 100 µM (inactive); with CCRF-CEM, > 100 µM (inactive); in the experiment with CAKI-1 it was > 100 µM (inactive); in the experiment with HT-29 it was > 100 µM (inactive); in the experiment with HCT-116 it was > 100 µM (inactive).

Take `N#CC1(C=O)c2ccccc2C=CN1C(=O)c1ccccc1` (stereo not given): the GI50 in the experiment with Malme-3M was 30.6 µM (inactive); in the experiment on RXF 393, 20.5 µM (inactive); in the experiment on MOLT-4, 18.7 µM (inactive); with OVCAR-4, 34.9 µM (inactive); in the experiment with UACC-257 it was 29.8 µM (inactive); in the experiment on NCI-H23, 41.7 µM (inactive). Further, the GI50 with OVCAR-3 is 16.7 µM (inactive); in the experiment with SK-MEL-5, 11.4 µM (inactive); in the experiment with HCT-15 it was 40.7 µM; in the experiment on KM12, 19.2 µM (inactive); in the experiment on NCI-H522, 27.9 µM (inactive); in the experiment with COLO 205 it was 37.3 µM (inactive). Further, the GI50 was 17.6 µM (inactive) in the experiment with CCRF-CEM, 20.5 µM (inactive) with CAKI-1, 38.2 µM (inactive) in the experiment with HT-29 and 38.6 µM (inactive) with HCT-116.

As to `CC(=O)Nc1c(Nc2ccccc2)[nH]c(C)nc1=S`, the GI50 in the experiment on Malme-3M, in the experiment on RXF 393, in the experiment with MOLT-4, in the experiment on OVCAR-4, with UACC-257 and with LOX IMVI was > 100 µM (inactive) throughout. In addition, the GI50 in the experiment on NCI-H23 was > 100 µM (inactive); with OVCAR-3 it was > 100 µM (inactive); in the experiment on HOP-62, > 100 µM (inactive); in the experiment on SK-MEL-5, > 100 µM (inactive); with HCT-15 it was over 100 µM; in the experiment with KM12, > 100 µM (inactive). Also, the GI50 in the experiment with NCI-H522, with COLO 205, in the experiment on CCRF-CEM and in the experiment with CAKI-1 was > 100 µM (inactive) in each case.

Take `O=C(C=P(c1ccccc1)(c1ccccc1)c1ccccc1)CC(=S)CC(=O)C=P(c1ccccc1)(c1ccccc1)c1ccccc1`: the GI50 is 5.01 µM (inactive) with Malme-3M; 5.61 µM (inactive) with RXF 393; 7.5 µM (inactive) with OVCAR-4; 3.15 µM (inactive) in the experiment with UACC-257; 3.53 µM (inactive) with LOX IMVI; 3.14 µM (inactive) in the experiment on NCI-H23. Moreover, the GI50 was 2.61 µM (inactive) with OVCAR-3; 8.04 µM (inactive) with HOP-62; 2.81 µM (inactive) with SK-MEL-5; 15.3 µM in the experiment on HCT-15; 3.81 µM (inactive) in the experiment on KM12; 2.74 µM (inactive) in the experiment with NCI-H522. The GI50 is 1.89 µM (inactive) in the experiment with COLO 205; 3.24 µM (inactive) in the experiment with CCRF-CEM; 16.2 µM (inactive) in the experiment with CAKI-1; 4.14 µM (inactive) with HT-29; 2.86 µM (inactive) in the experiment on HCT-116.

In the case of `CC(=O)OCC1OC(N2C(=O)C(=O)c3ccccc32)C(OC(C)=O)C(OC(C)=O)C1OC(C)=O` (stereo not given), the GI50 in the experiment with Malme-3M, in the experiment on RXF 393, with MOLT-4, in the experiment with OVCAR-4, in the experiment on UACC-257 and in the experiment with LOX IMVI was > 100 µM (inactive) in each case. Moreover, the GI50 was > 100 µM (inactive) in the experiment with NCI-H23; > 100 µM (inactive) with OVCAR-3; > 100 µM (inactive) in the experiment with HOP-62; > 100 µM (inactive) with SK-MEL-5; over 100 µM in the experiment with HCT-15; > 100 µM (inactive) in the experiment with KM12. For the same compound, the GI50 with NCI-H522, in the experiment with COLO 205, with CCRF-CEM, in the experiment with CAKI-1 and in the experiment on HT-29 was > 100 µM (inactive) each time.

For `CCOC(=O)/C(C#N)=C1/C(O)=C(C(=O)OC)C(C(=O)OC)=C1C(=O)OC.c1ccncc1`, the GI50 in the experiment with Malme-3M, in the experiment with RXF 393, in the experiment on MOLT-4, with OVCAR-4, in the experiment on UACC-257 and with LOX IMVI was > 100 µM (inactive) each time. The GI50 in the experiment on NCI-H23 was > 100 µM (inactive); in the experiment on OVCAR-3 it was > 100 µM (inactive); in the experiment with SK-MEL-5, > 100 µM (inactive); in the experiment with HCT-15, over 100 µM; in the experiment with KM12, > 100 µM (inactive); in the experiment with NCI-H522, > 100 µM (inactive). Moreover, the GI50 with COLO 205, in the experiment on CCRF-CEM, with CAKI-1 and in the experiment on HT-29 was > 100 µM (inactive) in each case.

Regarding `C[N+](C)(C)CC(=O)N/N=C(\CCC(=O)NCCc1ccccc1)CC(=O)c1ccccc1`, the GI50 with Malme-3M, in the experiment on MOLT-4, with OVCAR-4, with UACC-257, in the experiment with LOX IMVI and with NCI-H23 was > 100 µM (inactive) in each case. Further, the GI50 in the experiment with OVCAR-3 was > 100 µM (inactive); in the experiment with HOP-62, > 100 µM (inactive); with SK-MEL-5, > 100 µM (inactive); in the experiment with HCT-15, over 100 µM; in the experiment with KM12, > 100 µM (inactive); in the experiment with NCI-H522, > 100 µM (inactive). Also, the GI50 in the experiment with COLO 205, in the experiment on CCRF-CEM, with CAKI-1, with HT-29 and with HCT-116 was > 100 µM (inactive) throughout.

Turning to `O=C1C2C3C=C4c5ccccc5N(c5ccccc5)C4(C2C(=O)N1c1ccc(Cl)cc1)[C@H]1C(=O)N(c2ccc(Cl)cc2)C(=O)[C@@H]31` (stereo not given in full), the GI50 with Malme-3M, in the experiment with RXF 393, in the experiment with MOLT-4, in the experiment on OVCAR-4, with UACC-257 and with LOX IMVI was > 100 µM (inactive) throughout. In addition, the GI50 in the experiment with NCI-H23 was > 100 µM (inactive); in the experiment on OVCAR-3 it was > 100 µM (inactive); in the experiment on HOP-62, > 100 µM (inactive); with SK-MEL-5, > 100 µM (inactive); in the experiment with HCT-15, over 100 µM; with KM12, > 100 µM (inactive). For the same compound, the GI50 in the experiment on NCI-H522 is 82.6 µM (inactive); in the experiment with COLO 205 it was 64.7 µM (inactive); in the experiment on CCRF-CEM, > 100 µM (inactive); in the experiment on CAKI-1, 14.7 µM (inactive); with HT-29, > 100 µM (inactive); in the experiment on HCT-116 it was 78.3 µM (inactive).

In the case of `Cc1ccc(-c2cc(O)c3cc4c(cc3n2)OCO4)cc1`, the GI50 was 0.52 µM (active) in the experiment on Malme-3M; 1.44 µM (inactive) in the experiment on RXF 393; 2.72 µM (inactive) in the experiment on MOLT-4; 8.97 µM (inactive) in the experiment on OVCAR-4; > 100 µM (inactive) in the experiment with UACC-257; 2.67 µM (inactive) in the experiment with LOX IMVI. For the same compound, the GI50 in the experiment with NCI-H23 was 0.916 µM (active); in the experiment on OVCAR-3 it was 0.929 µM (active); with HOP-62 it was 2.25 µM (inactive); in the experiment with SK-MEL-5, 0.35 µM (active); in the experiment with HCT-15 it was 0.501 µM; in the experiment on KM12 it was 0.836 µM (active). Also, the GI50 in the experiment on NCI-H522 was 1.63 µM (inactive); in the experiment with COLO 205 it was 0.63 µM (active); with CCRF-CEM, 1.05 µM (active); in the experiment with CAKI-1, 3.52 µM (inactive); in the experiment with HT-29, 2.18 µM (inactive); in the experiment on HCT-116, 1.24 µM (inactive).
